Reference: PMC12216609, “Inhibitors of eIF1A-ribosome interaction unveil uORF-dependent regulation of translation initiation and antitumor and antiviral effects” (The EMBO Journal, 2025)
Several values for one entry are separate records, joined by “and”; a condition that tells them apart may be missing. Equal entries are not always repeated. Where two headings read alike, the source gives them in different places.

Tests used:
[1] = test system: CUG/GUG vs AUG start codon luciferase reporters in HEK293T cells; assay: Near-cognate AUG starting codon fidelity reporter assay (GUG, CUG vs AUG); type: cell-based; conditions: for CUG vs AUG (%): CUG start codon reporter relative to AUG reporter (AUG = 100); for CUG vs AUG (%) / GUG vs AUG (%): single-experiment calculation; for GUG vs AUG (%): GUG start codon reporter relative to AUG reporter (AUG = 100); for average CUG and GUG / average CUG and GUG relative to DMSO / CUG Average / GUG Average: NUG experiment; for CUG Average: CUG vs AUG reporter; for GUG Average: GUG vs AUG reporter; for NUG (Final data, Fig. 1E): average CUG and GUG relative to DMSO, 20 µM overnight; for GUG vs AUG data (%): individual repeat; for GUG vs AUG (%) Average: summary average of repeats, DMSO control average […]
[2] = target: T1, RPS10 (Homo sapiens, UniProt P46783); type: binding
T1 construct: made in house; host or cells: E. coli BL-21

[3] = target: T2, eIF1A-RPS10 interaction (Homo sapiens, UniProt P46783+P47813); assay: Split-Renilla luciferase eIF1A-RPS10 interaction screen, dose-response; type: biochemical
T2 construct: made in house; host or cells: E. coli BL21 (PRSFduet); unpurified lysate supernatant
T2 sequence (P47813 whole entry, one chain of several): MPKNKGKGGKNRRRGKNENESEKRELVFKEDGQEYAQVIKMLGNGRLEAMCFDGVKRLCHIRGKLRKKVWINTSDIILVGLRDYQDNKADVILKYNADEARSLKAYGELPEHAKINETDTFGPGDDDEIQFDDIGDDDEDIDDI
How it was run: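 The assay used bacterial lysates containing human eIF1A and RPS10, each carrying a partial Renilla luciferase, with eIF1A tagged at its C-terminus. Inhibition was scored as reduced luciferase signal from compounds prepared as 10 mM DMSO stocks.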

[4] = target: T3, eIF1A (Homo sapiens, UniProt P47813); type: binding; conditions: for fluorescence ratio, eIF1A: background-corrected, relative to DMSO or lowest 1Ai concentration, replicate columns; for WT eIF1A IC50: fluorescence binding
T3 construct: His-bdSUMO (cleaved yes); made in house; host or cells: E. coli BL-21
T3 sequence (P47813 whole entry): as the sequence (P47813 whole entry, one chain of several) above

[5] = compound at 20uM (summary head)
[6] = read-out: IC50 (line under RPS10 binding data)
[7] = summary table, fluorescence binding assay, read-out: IC50 concentration (µM), RPS10
[8] = summary table, read-out: IC50 concentration (µM), IC50 screen
[9] = eIF1A, from the titration data, read-out: IC50 (eIF1A titration block)
[10] = summary table, fluorescence binding assay
[11] = raw data calculation of one experiment, GFP normalized, AUG set to 100, compound marked (20)

| SMILES | average CUG and GUG [1] | average CUG and GUG relative to DMSO [1] | CUG Average [1] | GUG Average [1] | NUG (Final data, Fig. 1E) [1] | RPS10 fluorescence ratio to control ([2]; 1Ai conc. 0.25 uM) | RPS10 fluorescence ratio to control ([2]; 1Ai conc. 0.5 uM) | RPS10 fluorescence ratio to control ([2]; 1Ai conc. 1 uM) | RPS10 fluorescence ratio to control ([2]; 1Ai conc. 2 uM) | RPS10 fluorescence ratio to control ([2]; 1Ai conc. 4 uM) | RPS10 fluorescence ratio to control ([2]; 1Ai conc. 8 uM) | RPS10 fluorescence ratio to control ([2]; 1Ai conc. 16 uM) | RPS10 fluorescence ratio to control ([2]; 1Ai conc. 32 uM) | RPS10 fluorescence ratio to control ([2]; 1Ai conc. 256 uM) | IC50 [2, 7] | IC50 [3, 8] | fluorescence ratio, eIF1A ([4]; 1Ai conc. 0.25 uM) | fluorescence ratio, eIF1A ([4]; 1Ai conc. 0.5 uM) | fluorescence ratio, eIF1A ([4]; 1Ai conc. 1 uM) | fluorescence ratio, eIF1A ([4]; 1Ai conc. 2 uM) | also measured |
| --- | --- | --- | --- | --- | --- | --- | --- | --- | --- | --- | --- | --- | --- | --- | --- | --- | --- | --- | --- | --- | --- |
| CCOC(=O)c1ccsc1NC(=O)CN1C(=O)NC(C)(c2cccc3ccccc23)C1=O (stereo not drawn) [1Ai-1861] | 6.257 | 1.387 | 9.413 | 3.101 | 1.387 | 1 | 0.8226 | 0.9775 | 0.7185 | 0.4957 | 0.1947 | 0.1506 | 0.08052 | 0.398 | 3.7 µM | 15 µM | 1.039 and 0.974 | 1.136 and 0.9941 | 1.143 and 0.9966 | 1.167 and 0.9386 | CUG vs AUG (%) [1, 5]: 14.0136%; GUG vs AUG (%) [1, 5]: 2.535%; GUG vs AUG data (%) ([1]; compound at 20uM): 2.64% and 2.15% and 3.17% and 4.44%; GUG vs AUG (%) Average ([1]; compound at 20uM): 3.10%; RPS10 fluorescence ratio to control ([2]; 1Ai conc. 64 uM): 0.3768; IC50 [2, 6]: 3.7 µM; IC50 ([2]; read-out: RPS10 IC50): 3.7 µM; IC50 ([3]; Appendix Table S1, read-out: IC50 from the split RL screen): 14 µM; fluorescence ratio, eIF1A ([4]; 1Ai conc. 4 uM): 1.169 and 0.9347; fluorescence ratio, eIF1A ([4]; 1Ai conc. 8 uM): 1.065 and 0.8919; fluorescence ratio, eIF1A ([4]; 1Ai conc. 16 uM): 1.1254 and 0.8973; fluorescence ratio, eIF1A ([4]; 1Ai conc. 32 uM): 1.149 and 0.9563; fluorescence ratio, eIF1A ([4]; 1Ai conc. 64 uM): 1.304 and 0.9843; fluorescence ratio, eIF1A ([4]; 1Ai conc. 256 uM): 1.359 and 0.9897; IC50 [4, 9]: 71 µM; WT eIF1A IC50 [4]: No binding; IC50 concentration (µM), WT eIF1A [4, 10]: No binding |
| O=C(CSc1nc(-c2ccccc2)cn1-c1ccccc1)NC(=O)Nc1ccccc1 [1Ai-2383] | 5.372 | 1.191 | 8.595 | 2.149 | 1.191 | 1.003 | 0.5095 | 0.4927 | 0.4799 | 0.3805 | 0.08815 | 0.2868 | 0.02728 | 0.3391 | 0.661 µM | 23 µM | 0.9677 and 0.9798 | 0.9803 and 0.9815 | 1.02 and 0.9558 | 1.009 and 0.948 | GUG vs AUG data (%) ([1]; compound at 20uM): 2.05% and 2.35% and 1.83% and 2.36%; GUG vs AUG (%) Average ([1]; compound at 20uM): 2.15%; RPS10 fluorescence ratio to control ([2]; 1Ai conc. 64 uM): 0.2465; IC50 ([2]; fluorescence binding, read-out: RPS10 IC50): 0.7 µM; IC50 ([2]; source data Fig. 2B, read-out: IC50 (line under RPS10 binding data)): 0.66 µM; fluorescence ratio, eIF1A ([4]; 1Ai conc. 4 uM): 0.993 and 0.9579; fluorescence ratio, eIF1A ([4]; 1Ai conc. 8 uM): 0.9438 and 0.997; fluorescence ratio, eIF1A ([4]; 1Ai conc. 16 uM): 1.039 and 1.06; fluorescence ratio, eIF1A ([4]; 1Ai conc. 32 uM): 1.096 and 1.111; fluorescence ratio, eIF1A ([4]; 1Ai conc. 64 uM): 1.232 and 1.231; fluorescence ratio, eIF1A ([4]; 1Ai conc. 256 uM): 1.523 and 1.464; WT eIF1A IC50 [4]: No binding; IC50 concentration (µM), WT eIF1A [4, 10]: No binding |
| Cc1ccc(C)n1-c1cc([N+](=O)[O-])ccc1N1CCN(C(=O)c2ccccc2)CC1 [1Ai-9008] | 8.448 | 1.873 | 12.6998 | 4.196 | 1.873 | 1 | 0.9583 | 0.9477 | 0.9687 | 0.9804 | 0.9597 | 0.9394 | 1.009 | 1.212 | 9.9 µM | 27 µM | 0.8521 and 1 | 0.8814 and 1.016 | 0.8675 and 0.9766 | 1.139 and 0.9182 | CUG vs AUG (%) [1, 5]: 13.0714%; GUG vs AUG (%) [1, 5]: 3.675%; GUG vs AUG data (%) ([1]; compound at 20uM): 4.42% and 4.68% and 2.86% and 4.83%; GUG vs AUG (%) Average ([1]; compound at 20uM): 4.20%; IC50 [2, 6]: 9.9 µM; IC50 ([2]; read-out: RPS10 IC50): 9.9 µM; fluorescence ratio, eIF1A ([4]; 1Ai conc. 4 uM): 1.153 and 0.9421; fluorescence ratio, eIF1A ([4]; 1Ai conc. 8 uM): 0.9831 and 0.8499; fluorescence ratio, eIF1A ([4]; 1Ai conc. 16 uM): 0.926 and 0.7716; fluorescence ratio, eIF1A ([4]; 1Ai conc. 32 uM): 0.9353 and 0.7367; fluorescence ratio, eIF1A ([4]; 1Ai conc. 64 uM): 1.131 and 0.7322; fluorescence ratio, eIF1A ([4]; 1Ai conc. 256 uM): 1.254 and 0.8135; WT eIF1A IC50 [4]: No binding; IC50 concentration (µM), WT eIF1A [4, 10]: No binding |
| COc1ccc(C=C2CSc3ccc(Cl)cc3C2=O)cc1O [1Ai-5175] | 5.826 | 1.2918 | 9.011 | 2.642 | 1.292 | 0.6015 | 0.7077 | 1.288 | 1.156 | 1.025 | 0.4718 | 0.1497 | 0.1533 | 0.2335 | 6.7 µM | 16 µM | 0.9293 and 0.8251 | 0.9438 and 0.8466 | 0.9705 and 0.8212 | 0.5643 and 0.7297 | CUG vs AUG (%) ([1]; compound at 5uM (summary head)): 10.1681% and 8.512%; GUG vs AUG (%) ([1]; compound at 5uM (summary head)): 2.289% and 2.982%; GUG vs AUG data (%) ([1]; compound at 5uM): 2.76% and 3.14% and 2.85% and 1.82%; GUG vs AUG (%) Average ([1]; compound at 5uM): 2.64%; calculation: CUG (AUG = 100) [1, 11]: 4.394; calculation: GUG (AUG = 100) [1, 11]: 1.456; RPS10 fluorescence ratio to control ([2]; 1Ai conc. 64 uM): 0.2655; IC50 [2, 6]: 6.7 µM; IC50 ([2]; read-out: RPS10 IC50): 6.7 µM; fluorescence ratio, eIF1A ([4]; 1Ai conc. 4 uM): 0.4919 and 0.7019; fluorescence ratio, eIF1A ([4]; 1Ai conc. 8 uM): 0.4802 and 0.6176; fluorescence ratio, eIF1A ([4]; 1Ai conc. 16 uM): 0.3895 and 0.4949; fluorescence ratio, eIF1A ([4]; 1Ai conc. 32 uM): 0.3105 and 0.4413; fluorescence ratio, eIF1A ([4]; 1Ai conc. 64 uM): 0.2231 and 0.3132; fluorescence ratio, eIF1A ([4]; 1Ai conc. 256 uM): 0.1792 and 0.2884; IC50 [4, 9]: 6.02 µM; IC50 ([4]; summary table, fluorescence binding assay, read-out: IC50 concentration (µM), WT eIF1A): 6 µM |
